In ChEMBL document CHEMBL1687846, “Ex vivo activity of histone deacetylase inhibitors against multidrug-resistant clinical isolates of Plasmodium falciparum and P. vivax” (Antimicrob Agents Chemother, 2011):

What was measured:
[1] = system: Plasmodium vivax; test: Antimalarial activity against trophozoites stage of Plasmodium vivax assessed as parasites growth inhibition using giemsa staining after 24 to 56 hrs by microscopic analysis in presence of 20% human serum; assay type: functional, organism-based
[2] = system: Plasmodium vivax; test: Antimalarial activity against Plasmodium vivax assessed as parasites growth inhibition using giemsa staining after 24 to 56 hrs by microscopic analysis in presence of 20% human serum; assay type: functional, organism-based
[3] = system: Plasmodium falciparum; test: Antimalarial activity against Plasmodium falciparum assessed as parasites growth inhibition using giemsa staining after 24 to 56 hrs by microscopic analysis in presence of 10% human serum; assay type: functional, organism-based
[4] = system: Plasmodium vivax; test: Antimalarial activity against ring stage of Plasmodium vivax assessed as parasites growth inhibition using giemsa staining after 24 to 56 hrs by microscopic analysis in presence of 20% human serum; assay type: functional, organism-based
[5] = system: Plasmodium falciparum; test: Antimalarial activity against trophozoites stage of Plasmodium falciparum assessed as parasites growth inhibition using giemsa staining after 24 to 56 hrs by microscopic analysis in presence of 10% human serum; assay type: functional, organism-based
[6] = system: Plasmodium falciparum; test: Antimalarial activity against ring stage of Plasmodium falciparum assessed as parasites growth inhibition using giemsa staining after 24 to 56 hrs by microscopic analysis in presence of 10% human serum; assay type: functional, organism-based
[7] = system: Plasmodium falciparum; test: Antimalarial activity against chloroquine-sensitive Plasmodium falciparum 3D7 assessed as inhibition of [3H]hypoxanthine incorporation; assay type: functional, organism-based
[8] = system: Plasmodium falciparum; test: microbe, parasite or virus in culture; settings: K1, 3 h
Description: Antimalarial activity against chloroquine-resistant Plasmodium falciparum K1 assessed as inhibition of [3H]hypoxanthine incorporation

SMILES | IC50 [1] | IC50 [2] | IC50 [3] | IC50 [4] | IC50 [5] | IC50 [6] | IC50 [7] | IC50 [8]
OC(c1cc(C(F)(F)F)nc2c(C(F)(F)F)cccc12)C1CCCCN1 (configuration not stated) [MEFLOQUINE] | 0.0102 µM | 0.0077 µM | 0.0063 µM | 0.0092 µM |  |  |  | 
CCN(CC)CCCC(C)Nc1ccnc2cc(Cl)ccc12 (configuration not stated) [CHLOROQUINE] | 0.841 µM | 0.0404 µM |  |  |  |  |  | 
O=C(/C=C/c1ccccc1)N[C@@H](CCCCCC(=O)NO)C(=O)Nc1cccc2cccnc12 | 0.438 µM | 0.503 µM | 0.533 µM | 0.545 µM | 0.519 µM | 0.492 µM |  | 
CCN(CC)Cc1cc(Nc2ccnc3cc(Cl)ccc23)ccc1O | 0.0211 µM | 0.0091 µM | 0.005 µM |  | 0.0096 µM |  | 0.002 µM | 
O=C(CCCCC[C@H](NC(=O)c1cc2ccccc2[nH]1)C(=O)Nc1cccc2cccnc12)NO | 0.214 µM | 0.278 µM | 0.266 µM | 0.327 µM | 0.467 µM | 0.238 µM |  | 
C[C@H]1[C@H](OC(=O)CCC(=O)O)O[C@@H]2O[C@@]3(C)CC[C@H]4[C@H](C)CC[C@@H]1[C@@]24OO3 [ARTESUNATE] | 0.00039 µM | 0.00074 µM | 0.00092 µM | 0.00075 µM | 0.00119 µM | 0.00088 µM | 0.002 µM | 0.001 µM
Clc1ccc2c(N3CCN(CCCN4CCN(c5ccnc6cc(Cl)ccc56)CC4)CC3)ccnc2c1 [PIPERAQUINE] | 0.0159 µM | 0.0132 µM | 0.0108 µM | 0.0155 µM |  |  | 0.003 µM | 0.011 µM
